From paper PMC3125149, “SCYX-7158, an Orally-Active Benzoxaborole for the Treatment of Stage 2 Human African Trypanosomiasis” (PLoS Neglected Tropical Diseases, 2011)
In brackets after ≈: the same amount, converted by molar mass.

Key:
[1] = system: T. b. gambiense 40R; test: In vitro compound sensitivity assay (resazurin viability); assay type: cell-based; settings: Trypanosoma brucei, 72 h
Procedure: (§1) T. b. brucei was cultured in complete HMI-9 medium,[20] which contains 10% fetal bovine serum (FBS) (Invitrogen, Carlsbad, CA), 10% Serum Plus medium (SAFC Biosciences, Lenexa, KS), and 100 units/mL penicillin and 0.1 mg/mL streptomycin. The trypanosomes were propagated in T-25 vented cap flasks (Corning Inc., Lowell, MA) at 37°C and 5% CO2 with humidity. To ensure log growth phase, trypanosomes were sub-cultured at appropriate dilutions (typically 1∶100) every 2–3 days in fresh HMI-9 medium. T. b. rhodesiense parasites were grown in MEM medium with Earle's salts supplemented with 15% horse serum. For T. b. gambiense, the MEM medium was supplemented with 5% heat-inactivated fetal calf serum (FCS) and 15% human serum.[21] L929 mouse fibroblast cells (ATCC CCL1, American Type Culture Collection, Rockville, MD) were used to determine parasite versus mammalian cell selectivity. Cells were cultured in Dulbecco's Modified Eagle Medium (DMEM), supplemented with 10% FBS, L-glutamine and 100 units/mL penicillin and 0.1 mg/mL streptomycin. MDCKII-hMDR1 cells were generously provided by P. Borst at the Netherlands Kancer Institute. Cells were cultured in DMEM with Glutamax, 10% (v/v) FBS, and 100 units/mL penicillin and 0.1 mg/mL streptomycin. Cell monolayers were fed with cell culture media 24 h after seeding and used for permeability studies 3 days later.
(§2) Compounds to be tested were serially diluted in DMSO and added to 96-well plates to give final concentrations ranging from 5 to 0.01 µg/mL. T. b. brucei parasites in the log phase of growth were diluted in HMI-9 media and added to each well for a final concentration of 1×10^4 parasites per well. For the sensitivity assays using T. b. rhodesiense and T. b. gambiense, pararasites were cultured in MEM supplemented with Baltz components (8), diluted in the aforementioned culture media, and added to each well at a density of 1×10^3 cells/well. The final concentration of DMSO was 0.5% and the total volume was 100 µL/well. After a 72 h incubation, resazurin (Sigma-Aldrich, St. Louis, MO) was added to each well [20 µL of 25 mg/100 mL stock in phosphate buffered saline (PBS)] and incubated for an additional 4–6 h.[22] To assess cell viability, fluorescence was quantified using an EnVision Multilabel Plate Reader (Perkin Elmer, Waltham, MA) at an excitation wavelength of 530 nm and emission of 590 nm. Triplicate data points were averaged to generate sigmoidal dose-response curves and determine IC50 values using XLfit curve fitting software from IDBS (Guilford, UK). The IC50 is defined as the amount of compound required to decrease parasite or cell viability by 50% compared to those grown in the absence of the test compound. […]

[2] = system: T. b. gambiense DAL 1402; test: as above; assay type: cell-based; settings: Trypanosoma brucei, 72 h incubation, n = 1
Procedure: as §1, §2

[3] = system: T. b. gambiense Drani; test: as above; assay type: cell-based; settings: Trypanosoma brucei, 72 h incubation, n = 1
Procedure: as §1, §2

[4] = system: T. b. gambiense ITMAP 141267; test: as above; assay type: cell-based; settings: Trypanosoma brucei, 72 h incubation, n = 1
Procedure: as §1, §2

[5] = Metabolic stability in liver microsomal and S9 fractions; assay type: in vitro ADME, rodents, cynomolgus monkey and humans; settings: CD-1 (mouse), Sprague-Dawley (rat), beagle (dog), cynomolgus monkey, human, liver microsomes and liver S9 fractions, all species
Procedure: Metabolic stability was evaluated using mixed gender CD-1 mouse or human liver microsomal fractions (XenoTech, Lenexa, KS). Compounds (1 µM) were incubated with microsomes (1.05 mg/mL protein) for 0, 10, 15 and 30 min at 37°C in an oxygen and humidity enriched environment in the presence of an NADPH-regenerating system. Each compound was also incubated, under the same conditions, with CD-1 mouse, Sprague-Dawley rat, beagle dog, cynomolgus monkey, and human liver S9 sub-cellular fractions (2 mg/mL protein)[23] for 0, 15, 30 and 60 min. At the end of each incubation period, the reactions were quenched with 3 volumes of ice-cold methanol. Supernatants from the incubation mixtures were analyzed for parent compound by LC-MS/MS. Metabolic competencies of microsomal and S9 fractions were confirmed using control compounds 7-ethoxycoumarin, propranolol and verapamil. Intrinsic clearance (CLint) and half-life (t½) values were determined for each compound.

[6] = Pharmacokinetics in uninfected mice; assay type: in vivo, mouse

Work on `CC1(C)OB(O)c2cc(NC(=O)c3ccc(F)cc3C(F)(F)F)ccc21` [SCYX-7158] yielded an IC50 [1] of 0.363 µg/mL (≈ 0.989 µM), an IC50 [2] of 0.065 µg/mL (≈ 0.177 µM) and an IC50 [3] of 0.129 µg/mL (≈ 0.351 µM). For the same compound, the IC50 [4] was 0.092 µg/mL (≈ 0.251 µM), the half-life at 1 µM [5] was > 5.83 h and the microsomal CLint at 1 µM ([5]; read-out: intrinsic clearance) was < 5 µL/min/mg. For the same compound, the “brain AUC0–24 h” value ([6]; 4.3 mg/kg intravenous, brain) was 5570 ng·h/mL, the clearance ([6]; male, CD-1, mouse, plasma, 4.3 mg/kg intravenous, read-out: systemic clearance (CL) (converted)) was 1.48 mL/min/kg and the Vd ([6]; male, CD-1, mouse, plasma, 4.3 mg/kg intravenous, read-out: volume of distribution (Vdss)) was 1.69 L/kg. The Cmax ([6]; male, CD-1, mouse, oral dose of 56 mg/kg SCYX-7158, plasma) was 18000 ng/mL.
